Consider 13 molecules from patent US12448383B2, “Compounds and methods for treatment of viral infections” (priority 2022, dated 2025).

A short description of data set [1]: CC50 MT4 cytotoxicity (Cell-Titer Glo). Type of data set: cell-based. The conditions noted are these: human. The essentials: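 Uninfected MT-4 and HEp-2 cells cultured 4-5 days at 37° C with 3-fold serially diluted compound (15 nM to 100,000 nM). Viability read by Cell-Titer Glo luminescence; untreated and 2 μM puromycin wells set 100% and 0%. CC50 from non-linear regression as concentration reducing viability by 50%.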

The subject of data set [2] is Respiratory syncytial virus recombinant with luciferase (RSV-Luc5) in Normal Human Bronchial Epithelial (NHBE) cells. Kind of data set: microbe, parasite or virus in culture. It is filed as cell-based. The conditions noted are these: read-out: EC50 RSVFluc-NHBE 384 V2.
Data set [3] deals with Respiratory syncytial virus recombinant with luciferase (RSV-Luc5) in HEp-2 cells. Description: microbe, parasite or virus in culture. The conditions noted are these: human respiratory syncytial virus, HEp-2, read-out: EC50 RSVFluc-Hep2 384 V2. Type of data set: cell-based.
In data set [4] the test system is SARS Coronavirus 2 recombinant with NanoLuc (SARS-CoV2-NLuc) in A549-hACE2 cells. Kind of data set: microbe, parasite or virus in culture. It is filed as cell-based. The conditions noted are these: A549; read-out: EC50 SARS CoV2 NanoLuc A549 384.
In data set [5] the test system is Caco-2 cells (clone C2BBe1). Description: CACO-2 permeability. Type of data set: in vitro ADME. The arrangement: unit not given here. The settings on record: for DM Caco2 A to B: apical to basolateral, donor pH 6.5, receiver pH 7.4; for DM Caco2 B to A: basolateral to apical. The essentials: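 Caco-2 monolayers grown 21 days on collagen-coated transwells and checked for integrity by TEER. Donor buffer was HBSS/HEPES/glucose pH 6.5 with 200 μM BNPP; receiver was pH 7.4 with BSA. Compounds were dosed apically or basolaterally for A-to-B and B-to-A transport, with receiver sampling at 1 and 2 h, LC-MS/MS analysis and percent recovery.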

A further data set can be described thus: Plasma stability. It is filed as in vitro ADME. Also noted: unit not given here. The conditions noted are these: 37° C., 2 μM substrate. The essentials:
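Reaction mixture was sampled at 0.05, 0.5, 1, 2, 3 and 4 hr into quench solution containing internal standard, then centrifuged and diluted with water. Remaining analyte was measured by LC-MS on a Q-Exactive using a formic acid/acetonitrile gradient, with 5 ppm mass tolerance.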

Data set [6] in a line: GI S9 stability - no PMSF. It is filed as in vitro ADME. Also noted: GIS9-HUMAN-NoPMSF T1/2: unit: min. The settings on record: human intestinal S9, PMSF-free; for half-life at 2 µM: pH 7.4, read-out: GIS9-HUMAN-NoPMSF T1/2. The essentials: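 Compounds were incubated at 2 μM with PMSF-free intestinal S9 (1 mg/mL protein) in 100 mM PBS, pH 7.4, sampling at 6 time points over 120 min. Parent disappearance and formation of the nucleoside metabolite Reference Compound A were quantified by LC-MS (Q-Exactive) using analyte/internal standard peak area ratios.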

What is called CC50 is the concentration giving 50% cytotoxicity. By EC50 is commonly meant the midpoint of the concentration-response curve. What is called logD is the decadic logarithm of the distribution of all forms, ionised or not, between an organic phase and buffer at a given pH. Consider `N#C[C@@]1(c2ccc3c(N)ncnn23)O[C@H](COC(=O)OCOP(=O)(O)O)[C@@H](O)[C@H]1O` [Compound 40, ((2R,3S,4R,5R)-5-(4-aminopyrrolo[2,1-f][1,2,4]triazin-7-yl)-5-cyano-3,4-dihydroaytetrahydrofuran-2-yl)methyl ((phosphonooxy)methyl) carbonate], for which the CC50 in data set [1] is greater than 50 µM. Also, the concentration giving a half-maximal response (EC50) amounted to 3.69 µM in data set [2] and 3.55 µM in data set [3]. This molecule showed a logD in “physchem” of less than 0.3.
Turning to `COC(=O)Nc1ncnn2c([C@]3(C#N)O[C@H](COC(=O)OCC(C)(C)C)[C@@H](OC(=O)OC)[C@H]3OC(=O)OC)ccc12` [Compound 103, methyl (7-((2R,3R,4R,5R)-2-cyano-3,4-bis((methoxycarbonyl)oxy)-5-((((neopentyloxy)carbonyl)oxy)methyl)tetrahydrofuran-2-yl)pyrrolo[2,1-f][1,2,4]triazin-4-yl)carbamate], the EC50 in data set [4] was greater than 50 µM; in data set [2], 17.7 µM; in data set [3], 20.7 µM. The molecule also returned a cytotoxic concentration (CC50) in data set [1] greater than 50 µM. Besides, the logD in the data set “physchem” stood at 3.2.
In the case of `COC1O[C@H]2[C@@H](O1)[C@](C#N)(c1ccc3c(N)ncnn13)O[C@@H]2COC(=O)OC(C)C` (stereo partly drawn) [Compound 107, ((3aR,4R,6R,6aR)-6-(4-aminopyrrolo[2,1-f][1,2,4]triazin-7-yl)-6-cyano-2-methoxytetrahydrofuro[3,4-d][1,3]dioxol-4-yl)methyl isopropyl carbonate], the EC50 in data set [4], in data set [2] and in data set [3] was greater than 50 µM throughout. The CC50 in data set [1] is greater than 50 µM. This molecule displayed a logD in “physchem” of 2.5.
As to `CC(C)(C)OP(=O)(OCOC(=O)OC[C@H]1O[C@@](C#N)(c2ccc3c(N)ncnn23)[C@H](O)[C@@H]1O)OC(C)(C)C` [Compound 110, ((2R,3S,4R,5R)-5-(4-aminopyrrolo[2,1-f][1,2,4]triazin-7-yl)-5-cyano-3,4-dihydroxytetrahydrofuran-2-yl)methyl (((di-tert-butoxyphosphoryl)oxy)methyl) carbonate], the CC50 in data set [1] was greater than 50 µM. Further, the EC50 in data set [2] turned out to be 20.4 µM; in data set [3] it was 10.8 µM. In the data set “physchem”, the logD amounted to 1.7.
Regarding `COc1ccc(CCOC(=O)OC[C@H]2O[C@@](C#N)(c3ccc4c(N)ncnn34)[C@H](O)[C@@H]2O)cc1` [Compound 112, ((2R,3S,4R,5R)-5-(4-aminopyrrolo[2,1-f][1,2,4]triazin-7-yl)-5-cyano-3,4-dihydroxytetrahydrofuran-2-yl)methyl (4-methoxyphenethyl) carbonate], the EC50 in data set [4] worked out at 2.11 µM; in data set [2], 0.454 µM; in data set [3], 0.181 µM. In data set [1], this molecule registered a CC50 greater than 50 µM. This molecule displayed a logD in the data set “physchem” of 1.8. Besides, the “DM Caco2 A to B” value in data set [5] was found to be 2.53. The “DM Caco2 B to A” value in data set [5] is 15.81. In addition, the “STA Human Plasma 37” value in “Plasma stability” is reported as 28.8. For the same molecule, the half-life at 2 µM in data set [6] came out at 1.77 min.
As for `CC1(COC(=O)OC[C@H]2O[C@@](C#N)(c3ccc4c(N)ncnn34)[C@H](O)[C@@H]2O)CC1` [Compound 114, ((2R,3S,4R,5R)-5-(4-aminopyrrolo[2,1-f][1,2,4]triazin-7-yl)-5-cyano-3,4-dihydroxytetrahydrofuran-2-yl)methyl ((1-methylcyclopropyl)methyl) carbonate], the EC50 came to 1.12 µM in data set [4], 0.966 µM in data set [2] and 0.123 µM in data set [3]. This molecule registered a half-maximal cytotoxic concentration (CC50) in data set [1] greater than 50 µM. This molecule also displayed a logD in the data set “physchem” of 1.5. In data set [5], the “DM Caco2 A to B” value worked out at 2.07. The “DM Caco2 B to A” value in data set [5] was 11.26. The “STA Human Plasma 37” value in “Plasma stability” is on record as 26.8. Also, in data set [6], the half-life at 2 µM was determined as 1.21 min.
For the molecule `N#C[C@@]1(c2ccc3c(N)ncnn23)O[C@H](COC(=O)OCC2CC(F)(F)C2)[C@@H](O)[C@H]1O` [Compound 115, ((2R,3S,4R,5R)-5-(4-aminopyrrolo[2,1-f][1,2,4]triazin-7-yl)-5-cyano-3,4-dihydroxytetrahydrofuran-2-yl)methyl ((3,3-difluorocyclobutyl)methyl) carbonate], the EC50 in data set [4] worked out at 1.76 µM; in data set [2], 0.99 µM; in data set [3], 0.228 µM. The CC50 in data set [1] was greater than 50 µM. This molecule gave a pH-dependent lipophilicity (logD) in “physchem” of 1.4. Also, the “DM Caco2 A to B” value in data set [5] stood at 0.91. Also, the “DM Caco2 B to A” value in data set [5] amounted to 8.32. In addition, the “STA Human Plasma 37” value in the data set “Plasma stability” came out at 41.2. Also, the half-life at 2 µM in data set [6] amounted to 0.581 min.
Turning to `CC1(COC(=O)OC[C@H]2O[C@@](C#N)(c3ccc4c(N)ncnn34)[C@H](O)[C@@H]2O)CCC1` [Compound 122, ((2R,3S,4R,5R)-5-(4-aminopyrrolo[2,1-f][1,2,4]triazin-7-yl)-5-cyano-3,4-dihydroxytetrahydrofuran-2-yl)methyl ((1-methylcyclobutyl)methyl) carbonate], the EC50 in data set [4] turned out to be 0.707 µM; in data set [2] it was 1.04 µM; in data set [3], 0.29 µM. The CC50 in data set [1] is greater than 50 µM. The logD in “physchem” worked out at 1.9. Further, the “STA Human Plasma 37” value in the data set “Plasma stability” turned out to be 34.1. In data set [6], the half-life at 2 µM stood at 0.637 min.
On to `N#C[C@@]1(c2ccc3c(N)ncnn23)O[C@H](COC(=O)OCC2CC2)[C@@H](O)[C@H]1O` [Compound 125, ((2R,3S,4R,5R)-5-(4-aminopyrrolo[2,1-f][1,2,4]triazin-7-yl)-5-cyano-3,4-dihydroxytetrahydrofuran-2-yl)methyl (cyclopropylmethyl) carbonate], for which the results for the 50% effective concentration (EC50) in data set [4], in data set [2] and in data set [3] were 1.79 µM, 0.645 µM and 0.22 µM, respectively. The molecule further showed a CC50 in data set [1] greater than 50 µM. Further, the log distribution coefficient (logD) in the data set “physchem” came to 1.1. In the data set “Plasma stability”, the “STA Human Plasma 37” value turned out to be 12.2. The half-life at 2 µM in data set [6] is 0.582 min.
With `N#C[C@@]1(c2ccc3c(N)ncnn23)O[C@H](COC(=O)OCCCCCC(=O)O)[C@@H](O)[C@H]1O` [Compound 140, 6-(((((2R,3S,4R,5R)-5-(4-aminopyrrolo[2,1-f][1,2,4]triazin-7-yl)-5-cyano-3,4-dihydroxytetrahydrofuran-2-yl)methoxy)carbonyl)oxy)hexanoic acid], the EC50 in data set [4] was greater than 50 µM. In data set [1], the CC50 is greater than 50 µM. In addition, the EC50 in data set [2] was greater than 50 µM. For the same molecule, the logD in “physchem” is less than 0.3. Besides, in data set [5], the “DM Caco2 A to B” value is 0.04 and the “DM Caco2 B to A” value was 0.12. In “Plasma stability”, the “STA Human Plasma 37” value worked out at 1322.1. Besides, the half-life at 2 µM in data set [6] came out at 783 min.
Consider `N#C[C@@]1(c2ccc3c(N)ncnn23)O[C@H](COC(=O)OCCCC(=O)O)[C@@H](O)[C@H]1O` [Compound 141, 4-(((((2R,3S,4R,5R)-5-(4-aminopyrrolo[2,1-f][1,2,4]triazin-7-yl)-5-cyano-3,4-dihydroxytetrahydrofuran-2-yl)methoxy)carbonyl)oxy)butanoic acid], for which the EC50 in data set [4] and in data set [2] was greater than 50 µM in each case. In data set [1], this molecule returned a CC50 greater than 50 µM. This molecule yielded a logD in “physchem” of less than 0.3. In addition, the “DM Caco2 A to B” value in data set [5] worked out at 0.05. In addition, the “DM Caco2 B to A” value in data set [5] worked out at 0.08. The “STA Human Plasma 37” value in the data set “Plasma stability” amounted to 902.37. Besides, the “GIS9-HUMAN-NoPMSF T1/2” value in data set [6] was 789.
`N#C[C@@]1(c2ccc3c(N)ncnn23)O[C@H](COC(=O)OCCCCC(=O)O)[C@@H](O)[C@H]1O` [Compound 142, 5-(((((2R,3S,4R,5R)-5-(4-aminopyrrolo[2,1-f][1,2,4]triazin-7-yl)-5-cyano-3,4-dihydroxytetrahydrofuran-2-yl)methoxy)carbonyl)oxy)pentanoic acid]: the EC50 in data set [4] was greater than 50 µM. Moreover, the CC50 in data set [1] was greater than 50 µM. For the same molecule, the EC50 in data set [2] is greater than 50 µM. Also, the logD in “physchem” was less than 0.3. For the same molecule, in data set [5], the “DM Caco2 A to B” value came to 0.02 and the “DM Caco2 B to A” value is 0.07. The “STA Human Plasma 37” value in the data set “Plasma stability” was found to be 1584. In data set [6], the “GIS9-HUMAN-NoPMSF T1/2” value was 789.
In the case of `CC(C)OC(=O)[C@H](CCOC(=O)OC[C@H]1O[C@@](C#N)(c2ccc3c(N)ncnn23)[C@H](O)[C@@H]1O)N(C)C` [Compound 146, isopropyl (2S)-4-[[(2R,3S,4R,5R)-5-(4-aminopyrrolo[2,1-f][1,2,4]triazin-7-yl)-5-cyano-3,4-dihydroxy-tetrahydrofuran-2-yl]methoxycarbonyloxy]-2-(dimethylamino)butanoate], the EC50 in data set [4] came to 7.68 µM. In addition, in data set [1], the CC50 is greater than 50 µM. The EC50 in data set [2] is 8.25 µM. The same molecule registered a logD in “physchem” of 1.5. For the same molecule, in data set [5], the “DM Caco2 A to B” value is listed as 0.06 and the “DM Caco2 B to A” value was 7.15. In addition, the “STA Human Plasma 37” value in “Plasma stability” turned out to be 497.93. Also, the half-life at 2 µM in data set [6] stood at 174 min.
